Reference: patent publication US6177572A, “Solid and liquid-phase synthesis of benzoxazoles and benzothiazoles and their use” (Sepracor, Inc., priority 1997, dated 2001)

Assays:
Format in all cases: cell-based
Saccharomyces = experiment: Modified Kirby-Bauer Assay Against Saccharomyces; details: 10 mg/ml
Procedure: (§1) Modified Kirby-Bauer Susceptibility Testing (see, e.g., Finegold et al. "Diagnostic Microbiology," 6th Ed., C. V. Mosby Co., St. Louis, (1982), pp. 542-543: Microorganisms are grown on a solid medium in order to ensure a pure homogeneous culture. This requires an 18-24 hour grow out. Once purity is determined, the microorganism is sub-cultured by picking off one to three colonies from the solid medium using a sterile loop, and placing the colonies onto an appropriate liquid medium (e.g., Brain Heart Infusion for bacteria and Sabouraud's Dextrose for yeast or fungi). The microorganisms are then allowed to grow for 4-6 hours at the appropriate atmospheric and temperature conditions. After the 4-6 hour grow out, the microorganisms are ready for testing.
(§2) The MacFarland standard is prepared by mixing Barium Chloride with sulfuric acid in the appropriate proportions, as is known in the art (see, e.g. Finegold et al., supra). Once the cultures have been standardized, sterile cotton swabs are used to apply the microorganisms to agar plates for testing. The plates are swabbed in three different directions, rotating the plates 60 each time. After the microorganisms have been applied to the plate, 10-12 paper disks (1/4") in diameter are spaced evenly around the plate. […] The zones are measured in millimeters and recorded. […]

Candida = experiment: Modified Kirby-Bauer Assay Against Candida; details: 10 mg/ml
Procedure: as §1, §2

Staphylococcus aureus = experiment: Modified Kirby-Bauer Assay Against Staphylococcus aureus; details: read-out: zone size of inhibited microbial growth (diameter), control
Procedure: as §1, §2

E. Coli = experiment: Modified Kirby-Bauer Assay Against E. Coli; details: Escherichia coli, control, 10 mg/ml, read-out: zone size of inhibited microbial growth (diameter), control
Procedure: as §1, §2

Compound: CCC(C)n1ncn(-c2ccc(N3CCN(c4ccc(OCC5COC(Cn6cncn6)(c6ccc(Cl)cc6Cl)O5)cc4)CC3)cc2)c1=O (single isomer, unassigned; (+)) [(+) cis-itraconazole]
- zone size of inhibited microbial growth (diameter), control (Saccharomyces): 12 mm
- zone size of inhibited microbial growth (diameter), control (Candida): 12 mm

Compound: CN(C)C1C(O)=C(C(N)=O)C(=O)C2(O)C(O)=C3C(=O)c4c(O)cccc4C(C)(O)C3CC12 (stereo not drawn) [Tetracylcine]
- zone of inhibition at 10000 µg/mL (Staphylococcus aureus): 25 mm
- zone of inhibition at 10000 µg/mL (E. Coli): 22 mm

Compound: CCC(C)n1ncn(-c2ccc(N3CCN(c4ccc(OCC5COC(Cn6cncn6)(c6ccc(Cl)cc6Cl)O5)cc4)CC3)cc2)c1=O (single isomer, unassigned; (-)) [(-) cis itraconazole]
- zone size of inhibited microbial growth (diameter), control (Saccharomyces): 15 mm
- zone size of inhibited microbial growth (diameter), control (Candida): 15 mm
